Measured values from PubChem BioAssay (NCI).
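The compound was tested at five concentrations on cells cultured in 96-well plates, with a 48-hour exposure period. GI50 is the concentration that inhibits growth by half. Definition used: TGI = concentration required for complete inhibition of growth.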

Tests used:
Assay in all cases: NCI tumour cell line growth inhibition, 48 h
[1] = test system: RXF 393 renal
[2] = test system: TK-10 renal
[3] = test system: HL-60(TB) leukemia
[4] = test system: ACHN renal
[5] = test system: MOLT-4 leukemia
[6] = test system: IGROV1 ovarian
[7] = test system: SK-MEL-28 melanoma
[8] = test system: CCRF-CEM leukemia
[9] = test system: OVCAR-5 ovarian
[10] = test system: OVCAR-8 ovarian

Compound | GI50 [1] [µM] | TGI [1] [µM] | GI50 [2] [µM] | TGI [2] [µM] | GI50 [3] [µM] | TGI [3] [µM] | GI50 [4] [µM] | TGI [4] [µM] | TGI [5] [µM] | TGI [6] [µM] | TGI [7] [µM] | TGI [8] [µM] | TGI [9] [µM] | TGI [10] [µM] | GI50 [5] [µM] | GI50 [6] [µM] | GI50 [7] [µM] | GI50 [8] [µM] | GI50 [9] [µM] | GI50 [10] [µM]
COC1=CC(c2ccc[nH]2)=N/C1=C\c1[nH]c(C)c(CC(=O)NCc2ccccc2)c1C | 1.55 | 2.95 | 1.75 | 3.24 | 1.63 | 3.47 | 1.75 | 3.28 | – | – | – | – | – | – | – | – | – | – | – | –
CCOC(=O)NC(=O)c1cn(CCN(CCO)C(=O)NCCCCCCNC(=O)N(CCO)CCn2cc(C(=O)NC(=O)OCC)c(=O)[nH]c2=O)c(=O)[nH]c1=O | – | > 100 | – | – | – | > 100 | – | – | > 100 | > 100 | > 100 | > 100 | > 100 | > 100 | – | – | – | – | – | –
N/C(=C\c1ccc(/C=C(\NC(=O)c2ccccc2)c2nc3c([nH]2)C(=O)c2ccccc2C3=O)cc1)c1nc2c([nH]1)C(=O)c1ccccc1C2=O | – | 26.2 | – | 51.7 | – | 38.3 | – | 52.6 | 29.3 | 40.3 | 31.3 | 57.2 | 40.5 | 61.8 | – | – | – | – | – | –
COc1nc2ccc(Cl)c(C(O)c3ccccc3)c2nc1OC (centres undefined) | – | 41.3 | – | > 100 | – | 52.5 | – | > 100 | 46.4 | > 100 | > 100 | 29.5 | > 100 | > 100 | – | – | – | – | – | –
COC(Cc1cc(C(O)(c2ccc(C(C)(C)C)cc2)c2cc(CC(OC)(c3cc(C(OC)(c4ccc(C(C)(C)C)cc4)c4ccc(C(C)(C)C)cc4)c(C)cc3C)c3cc(C(OC)(c4ccc(C(C)(C)C)cc4)c4ccc(C(C)(C)C)cc4)c(C)cc3C)c(C)cc2C)c(C)cc1C)(c1cc(C(OC)(c2ccc(C(C)(C)C)cc2)c2ccc(C(C)(C)C)cc2)c(C)cc1C)c1cc(C(OC)(c2ccc(C(C)(C)C)cc2)c2ccc(C(C)(C)C)cc2)c(C)cc1C | – | > 75 | – | > 75 | – | > 75 | – | – | > 75 | > 75 | > 75 | > 75 | > 75 | > 75 | – | – | – | – | – | –
COc1cc(-c2n/c(=C\c3c(O)[nH]c4ccccc34)cc3c2=Nc2ccccc2-3)ccc1F | 3.61 | 22.2 | 3.89 | 13 | > 100 | > 100 | 8.09 | 35.2 | 97.9 | 48.9 | 22.6 | > 100 | 90.8 | 31.5 | 9.61 | 10.3 | 6.2 | 4.75 | 22.2 | 8.4
CCCC[n+]1ccn(-c2nc3ccccc3n2C)c1 | – | > 100 | – | > 100 | – | > 100 | – | > 100 | > 100 | > 100 | – | > 100 | > 100 | > 100 | – | – | – | – | – | –
CN(CCO)CCC1COc2ccccc2O1 (centres undefined) | – | > 10 | – | > 10 | – | > 10 | – | > 10 | > 10 | > 10 | > 10 | > 10 | > 10 | > 10 | – | – | – | – | – | –
